From patent publication US11382915B2, “Treatment of focal segmental glomerulosclerosis with CCR2 antagonists” (CHEMOCENTRYX, INC., priority 2017, dated 2022)

Assays:
CCR8 = target: T1, CCR8 (Homo sapiens, UniProt P51685); experiment: 293-CCR8 Calcium Mobilization; format: cell-based; settings: read-out: Potency (IC50), CCR8
T1 construct: expressed in transfected cells; host or cells: 293
Method: (§1) Chemotaxis, calcium mobilization, and radio-ligand binding assays were conducted as previously described (Sullivan et al, 2013; Walters et al, 2010). Inhibition values (IC50) were calculated using non-linear regression with a one-site competition model (GraphPad Prism, GraphPad Software, La Jolla, Calif.). A2 values for assessment of potency in chemotaxis assays denotes the concentration of the antagonist required to right-shift by 2-fold the chemokine dose-response curve. […] Urinary albumin was measured by ELISA (Bethyl Labs, Montgomery, Tex.). Urinary and serum creatinine was measured by LC-MS/MS at ChemoCentryx. The urinary albumin excretion rate (UAER) was calculated as micrograms per 24 h. Blood urea nitrogen (BUN) was measured by Antech Diagnostics (Morrisville, N.C.). The albumin to creatinine ratio (ACR) was calculated as micrograms of albumin per milligram of creatinine.

C3aR = target: T2, C3aR (Homo sapiens, UniProt Q16581); experiment: C3aR Neutrophil Calcium Mobilization; format: cell-based; settings: read-out: Potency (IC50), C3aR
T2 construct: Human monocytes and neutrophils were isolated from healthy volunteers; host or cells: primary human neutrophils
Method: as §1

CCR7 = target: T3, CCR7 (Homo sapiens, UniProt P32248); experiment: CCR7 Activated Lymphocyte Calcium Mobilization; format: cell-based; settings: read-out: Potency (IC50), CCR7
T3 construct: endogenous in cells
T3 sequence (P32248 25-378): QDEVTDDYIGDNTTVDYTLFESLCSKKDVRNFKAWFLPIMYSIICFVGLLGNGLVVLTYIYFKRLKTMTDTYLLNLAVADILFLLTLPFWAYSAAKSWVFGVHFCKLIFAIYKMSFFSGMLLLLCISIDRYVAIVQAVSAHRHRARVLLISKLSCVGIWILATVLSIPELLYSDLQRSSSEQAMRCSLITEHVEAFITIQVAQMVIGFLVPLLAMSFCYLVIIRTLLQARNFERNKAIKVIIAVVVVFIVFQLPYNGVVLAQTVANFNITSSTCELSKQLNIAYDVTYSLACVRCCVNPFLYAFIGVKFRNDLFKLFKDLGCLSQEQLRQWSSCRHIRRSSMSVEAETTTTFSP
Method: as §1

CCR3 = target: T4, CCR3 (Homo sapiens, UniProt P51677); experiment: 293-CCR3 Calcium Mobilization; format: cell-based; settings: read-out: Potency (IC50), CCR3
T4 construct: expressed in transfected cells; host or cells: 293
T4 sequence (P51677 whole entry): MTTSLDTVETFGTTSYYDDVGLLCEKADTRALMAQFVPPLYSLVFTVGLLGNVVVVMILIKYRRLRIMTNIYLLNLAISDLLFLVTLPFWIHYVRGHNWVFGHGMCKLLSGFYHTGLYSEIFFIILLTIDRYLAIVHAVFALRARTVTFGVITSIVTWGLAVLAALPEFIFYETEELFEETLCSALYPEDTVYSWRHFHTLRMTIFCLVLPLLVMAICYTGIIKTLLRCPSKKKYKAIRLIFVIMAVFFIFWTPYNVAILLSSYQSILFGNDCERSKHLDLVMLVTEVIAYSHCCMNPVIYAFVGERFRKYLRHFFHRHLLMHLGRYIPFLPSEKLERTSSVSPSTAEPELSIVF
Method: as §1

CXCR5 = target: T5, CXCR5 (Homo sapiens, UniProt P32302); experiment: Baf3-CXCR5 Calcium Mobilization; format: cell-based; settings: read-out: Potency (IC50), CXCR5
T5 construct: expressed in transfected cells; host or cells: Baf3
Method: as §1

CCR4 = target: T6, CCR4 (Homo sapiens, UniProt P51679); experiment: CCR4 Activated Lymphocyte Calcium Mobilization; format: cell-based; settings: read-out: Potency (IC50), CCR4
T6 construct: endogenous in cells
T6 sequence (P51679 whole entry): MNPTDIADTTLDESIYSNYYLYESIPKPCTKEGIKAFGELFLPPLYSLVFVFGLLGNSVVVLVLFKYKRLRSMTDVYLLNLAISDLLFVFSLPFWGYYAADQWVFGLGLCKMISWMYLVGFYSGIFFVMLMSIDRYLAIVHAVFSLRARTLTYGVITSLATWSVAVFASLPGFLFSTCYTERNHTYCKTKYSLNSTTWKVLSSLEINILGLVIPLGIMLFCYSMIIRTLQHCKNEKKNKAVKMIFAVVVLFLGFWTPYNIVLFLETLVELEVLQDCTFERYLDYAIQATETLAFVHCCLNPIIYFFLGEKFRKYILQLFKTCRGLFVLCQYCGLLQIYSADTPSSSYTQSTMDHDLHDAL
Method: as §1

CXCR7 = target: T7, CXCR7 (Homo sapiens, UniProt P25106); experiment: 293-CXCR7 Radio-ligand Binding; settings: read-out: Potency (IC50), CXCR7
T7 construct: expressed in transfected cells; host or cells: 293
T7 sequence (P25106 whole entry): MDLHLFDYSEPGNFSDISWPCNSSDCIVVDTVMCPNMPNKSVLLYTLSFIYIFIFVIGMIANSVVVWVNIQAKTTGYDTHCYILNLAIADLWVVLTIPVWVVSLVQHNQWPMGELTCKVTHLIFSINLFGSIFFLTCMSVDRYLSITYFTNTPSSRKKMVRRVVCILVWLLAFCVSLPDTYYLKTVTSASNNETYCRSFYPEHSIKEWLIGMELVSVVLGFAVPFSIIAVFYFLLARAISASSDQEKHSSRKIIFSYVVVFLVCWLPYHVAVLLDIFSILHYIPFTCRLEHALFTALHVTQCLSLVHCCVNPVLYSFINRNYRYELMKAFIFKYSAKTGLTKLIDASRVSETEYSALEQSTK
Method: as §1

CCR10 = target: T8, CCR10 (Homo sapiens, UniProt P46092); experiment: 293-CCR10 Calcium Mobilization; format: cell-based; settings: read-out: Potency (IC50), CCR10
T8 construct: expressed in transfected cells; host or cells: 293
T8 sequence (P46092 whole entry): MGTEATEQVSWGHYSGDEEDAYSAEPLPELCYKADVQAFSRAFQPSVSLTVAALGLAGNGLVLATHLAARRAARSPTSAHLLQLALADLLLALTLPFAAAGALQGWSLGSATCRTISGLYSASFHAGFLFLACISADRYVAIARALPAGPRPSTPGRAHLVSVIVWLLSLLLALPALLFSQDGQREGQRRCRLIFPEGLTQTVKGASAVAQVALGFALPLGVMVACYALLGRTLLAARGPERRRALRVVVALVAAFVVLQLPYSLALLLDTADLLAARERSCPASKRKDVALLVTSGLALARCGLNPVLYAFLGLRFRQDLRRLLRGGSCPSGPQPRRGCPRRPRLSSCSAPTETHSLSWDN
Method: as §1

CCR9 = target: T9, CCR9 (Homo sapiens, UniProt P51686); experiment: CCR9 Molt4 Serum Chemotaxis; format: cell-based; settings: read-out: Potency (IC50), CCR9
T9 construct: cell lines that either endogenously expressed certain chemokine receptors; endogenous in cells; host or cells: Molt4
T9 sequence (P51686 whole entry): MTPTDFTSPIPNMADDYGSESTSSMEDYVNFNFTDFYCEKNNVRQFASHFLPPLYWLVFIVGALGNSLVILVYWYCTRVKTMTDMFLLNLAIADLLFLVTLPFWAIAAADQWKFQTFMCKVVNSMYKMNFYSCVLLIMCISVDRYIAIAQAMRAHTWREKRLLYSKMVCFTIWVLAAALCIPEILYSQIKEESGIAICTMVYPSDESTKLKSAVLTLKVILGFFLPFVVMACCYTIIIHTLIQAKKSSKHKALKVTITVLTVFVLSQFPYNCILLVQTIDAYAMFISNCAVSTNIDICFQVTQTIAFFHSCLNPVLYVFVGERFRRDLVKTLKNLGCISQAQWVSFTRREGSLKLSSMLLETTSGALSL
Method: as §1

CXCR6 = target: T10, CXCR6 (Homo sapiens, UniProt O00574); experiment: CXCR6 Activated Lymphocyte Buffer Chemotaxis; format: cell-based; settings: read-out: Potency (IC50), CXCR6
T10 construct: endogenous in cells
T10 sequence (O00574 whole entry): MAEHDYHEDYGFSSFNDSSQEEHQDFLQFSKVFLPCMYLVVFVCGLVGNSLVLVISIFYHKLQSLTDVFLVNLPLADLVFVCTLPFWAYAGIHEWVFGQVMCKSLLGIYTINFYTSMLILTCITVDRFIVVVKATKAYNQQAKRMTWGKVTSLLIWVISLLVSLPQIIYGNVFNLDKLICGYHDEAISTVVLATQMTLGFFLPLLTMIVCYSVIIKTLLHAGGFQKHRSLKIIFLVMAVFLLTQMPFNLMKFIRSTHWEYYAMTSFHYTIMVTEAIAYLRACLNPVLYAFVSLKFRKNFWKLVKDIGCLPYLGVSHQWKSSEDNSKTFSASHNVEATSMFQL
Method: as §1

[1] = Mouse pharmacokinetic (PK) study; format: in vivo; settings: male, 129s, plasma, sc, mice, single s.c. injection at 90 mg/kg, 24 hours post-dosing
Method: Blood was drawn at 0.5, 2, […], 4, 8, 12, and 24 hours post-dosing. Compound 1 drug level was analyzed by LC-MS/MS at ChemoCentryx with plasma samples.
To determine if Compound 1 was suitable for in vivo experiments, we analyzed its pharmacokinetic profile in mice.

CCR2 [2] = target: T11, CCR2 (Mus musculus, UniProt P51683); experiment: Inhibition of radio-labeled mJE (CCL2) binding to WEHI-274 cells; settings: WEHI-274 murine monocyte cell line endogenously expressing CCR2
T11 construct: WEHI-274 murine monocyte cell line that endogenously expresses CCR2; host or cells: WEHI-274.1
Method: as §1

[3] = system: Adriamycin challenged mice; experiment: Adriamycin induced FSGS model; format: in vivo; settings: for UAER: Adriamycin nephropathy model, Compound 1 90 mg/kg s.c. once daily, RAAS blocker 5 mg/kg orally once daily
Method: These experiments were performed using female Balb/c mice (Jackson Laboratories, Bar Harbor, Me.). The mice were kept on standard chow and had free access to water. At age of 10 weeks, 7.5 mg/kg Adriamycin (Selleck Chemicals, Houston, Tex.) or saline (control) was injected via tail vein in isoflurane-anesthetized animals (day 0). […] The RAAS blocker Candesartan (AK Scientific, Union City, Calif.) and its vehicle were dosed orally once daily at 5 mg/kg, formulated in water. All dosing started 2 hours prior Adriamycin challenge. The mice were housed individually in metabolic cages for quantitative collection of urinary albumin and creatinine. Chemotaxis, calcium mobilization, and radio-ligand binding assays were conducted as previously described (Sullivan et al, 2013; Walters et al, 2010). Inhibition values (IC50) were calculated using non-linear regression with a one-site competition model (GraphPad Prism, GraphPad Software, La Jolla, Calif.). A2 values for assessment of potency in chemotaxis assays denotes the concentration of the antagonist required to right-shift by 2-fold the chemokine dose-response curve. […] Urinary albumin was measured by ELISA (Bethyl Labs, Montgomery, Tex.). Urinary and serum creatinine was measured by LC-MS/MS at ChemoCentryx. The urinary albumin excretion rate (UAER) was calculated as micrograms per 24 h. Blood urea nitrogen (BUN) was measured by Antech Diagnostics (Morrisville, N.C.). The albumin to creatinine ratio (ACR) was calculated as micrograms of albumin per milligram of creatinine. […] Adriamycin is an oncolytic antibiotic that induces proteinuria and glomerulosclerosis in rodents after a single infusion. […] The level of protection was equal to or better than that of RAAS blockade.

CXCR2 = target: T12, CXCR2 (Homo sapiens, UniProt P25025); experiment: CXCR2 Neutrophil Calcium Mobilization; format: cell-based; settings: read-out: Potency (IC50), CXCR2
T12 construct: Human monocytes and neutrophils were isolated from healthy volunteers; host or cells: primary human neutrophils
T12 sequence (P25025 whole entry): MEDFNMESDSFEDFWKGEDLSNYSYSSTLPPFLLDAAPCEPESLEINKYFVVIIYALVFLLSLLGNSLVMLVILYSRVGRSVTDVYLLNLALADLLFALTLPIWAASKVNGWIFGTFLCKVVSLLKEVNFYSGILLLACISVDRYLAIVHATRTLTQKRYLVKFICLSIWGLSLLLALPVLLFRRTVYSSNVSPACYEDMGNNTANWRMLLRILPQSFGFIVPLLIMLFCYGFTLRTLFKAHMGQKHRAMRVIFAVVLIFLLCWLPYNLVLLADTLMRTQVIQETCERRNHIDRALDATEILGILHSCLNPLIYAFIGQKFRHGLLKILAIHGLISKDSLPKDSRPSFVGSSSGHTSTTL
Method: as §1

CXCR4 = target: T13, CXCR4 (Homo sapiens, UniProt P61073); experiment: CXCR4 Activated Lymphocyte Calcium Mobilization; format: cell-based; settings: read-out: Potency (IC50), CXCR4
T13 construct: endogenous in cells
T13 sequence (P61073 whole entry): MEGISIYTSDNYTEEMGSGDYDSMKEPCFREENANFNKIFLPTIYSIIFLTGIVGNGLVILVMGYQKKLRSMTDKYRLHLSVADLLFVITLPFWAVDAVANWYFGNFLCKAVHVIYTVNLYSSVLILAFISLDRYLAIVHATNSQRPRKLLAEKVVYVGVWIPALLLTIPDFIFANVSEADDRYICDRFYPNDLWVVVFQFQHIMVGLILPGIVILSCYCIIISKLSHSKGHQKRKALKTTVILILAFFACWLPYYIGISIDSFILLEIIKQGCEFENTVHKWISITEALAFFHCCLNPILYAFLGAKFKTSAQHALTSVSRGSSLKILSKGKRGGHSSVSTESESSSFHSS
Method: as §1

CCR2 [4] = target: T14, CCR2 (Homo sapiens, UniProt P41597); experiment: CCR2 ThP1 Cell Chemotaxis; format: cell-based; settings: read-out: Potency (IC50), CCR2
T14 construct: cell lines that either endogenously expressed certain chemokine receptors; host or cells: ThP1
T14 sequence (P41597 1-360 isoform P41597-2): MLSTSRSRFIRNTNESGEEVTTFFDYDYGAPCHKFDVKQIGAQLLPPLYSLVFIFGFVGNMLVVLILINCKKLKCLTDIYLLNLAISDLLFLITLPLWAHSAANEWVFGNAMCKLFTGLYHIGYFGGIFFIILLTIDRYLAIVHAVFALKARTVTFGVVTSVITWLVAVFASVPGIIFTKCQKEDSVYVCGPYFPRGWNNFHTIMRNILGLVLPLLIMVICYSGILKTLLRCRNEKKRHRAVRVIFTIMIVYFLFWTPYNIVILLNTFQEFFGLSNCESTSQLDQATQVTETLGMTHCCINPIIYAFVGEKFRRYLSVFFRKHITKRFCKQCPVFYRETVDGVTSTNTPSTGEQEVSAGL
Method: as §1

CCR6 = target: T15, CCR6 (Homo sapiens, UniProt P51684); experiment: CCR6 Activated Lymphocyte Calcium Mobilization; format: cell-based; settings: read-out: Potency (IC50), CCR6
T15 construct: endogenous in cells
Method: as §1

CXCR3 = target: T16, CXCR3 (Homo sapiens, UniProt P49682); experiment: CXCR3 Activated Lymphocyte Calcium Mobilization; format: cell-based; settings: read-out: Potency (IC50), CXCR3
T16 construct: endogenous in cells
Method: as §1

[5] = system: kidneys of 5/6 nephrectomized mice; experiment: Histological analysis of kidneys from the 5/6 nephrectomy model; format: in vivo
Method: 5/6 nephrectomy mice on the 129X1/SvJ background were obtained from Jackson Laboratories, and were received at ChemoCentryx after the surgery was performed at JAX. Under isoflurane anesthesia, two-thirds of the left kidney mass was removed at 5-6 weeks of age. Then, after 7 to 10 days, a right unilateral nephrectomy was performed. The mice were fed a standard chow and had free access to water. Three weeks after the 5/6 nephrectomy, the mice were grouped to ensure a similar starting UAER in each treatment group. […] The RAAS blocker candesartan (AK Scientific, Union City, Calif.) and its vehicle were dosed orally once daily at 5 mg/kg formulated in water. […] The mice were housed individually in metabolic cages for quantitative collection of urinary albumin and creatinine.
The kidneys were collected, fixed in formalin, embedded in paraffin, and cut into 5-μm-thick sections. […] Glomerular hypertrophy, mesangial expansion, glomerular sclerosis, and tubular structure were determined by examination of sections by an observer blinded to the treatment groups.
Fixed kidney sections were obtained from 5/6 nephrectomized mice for pathology. The sections were stained and evaluated to determine whether the Compound 1-mediated improvements in renal function were associated with anatomical changes.

CCR1 = target: T17, CCR1 (Homo sapiens, UniProt P32246); experiment: CCR1 Monocyte Chemotaxis; format: cell-based; settings: read-out: Potency (IC50), CCR1
T17 construct: Human monocytes and neutrophils were isolated from healthy volunteers; host or cells: primary human monocytes
T17 sequence (P32246 whole entry): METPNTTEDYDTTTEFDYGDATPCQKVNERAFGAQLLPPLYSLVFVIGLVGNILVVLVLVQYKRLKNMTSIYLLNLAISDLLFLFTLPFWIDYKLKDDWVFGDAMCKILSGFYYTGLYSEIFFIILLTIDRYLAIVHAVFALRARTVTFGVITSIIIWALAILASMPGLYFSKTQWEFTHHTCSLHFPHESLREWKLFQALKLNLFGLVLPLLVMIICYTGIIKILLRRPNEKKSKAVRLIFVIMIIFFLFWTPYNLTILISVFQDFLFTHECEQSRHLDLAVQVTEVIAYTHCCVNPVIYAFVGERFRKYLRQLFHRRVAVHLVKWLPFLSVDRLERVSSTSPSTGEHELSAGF
Method: as §1

C5aR = target: T18, C5aR (Homo sapiens, UniProt P21730); experiment: C5aR Neutrophil Calcium Mobilization; format: cell-based; settings: read-out: Potency (IC50), C5aR
T18 construct: Human monocytes and neutrophils were isolated from healthy volunteers; host or cells: primary human neutrophils
T18 sequence (P21730 whole entry): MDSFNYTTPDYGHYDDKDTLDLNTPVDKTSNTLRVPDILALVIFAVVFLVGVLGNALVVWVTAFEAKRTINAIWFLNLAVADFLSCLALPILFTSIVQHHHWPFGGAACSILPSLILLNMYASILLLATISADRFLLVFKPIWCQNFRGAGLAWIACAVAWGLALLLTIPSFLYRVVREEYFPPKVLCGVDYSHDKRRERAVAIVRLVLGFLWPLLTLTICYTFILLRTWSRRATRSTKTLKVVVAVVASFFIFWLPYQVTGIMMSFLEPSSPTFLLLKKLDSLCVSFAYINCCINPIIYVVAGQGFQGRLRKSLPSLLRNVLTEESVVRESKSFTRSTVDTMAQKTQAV
Method: as §1

CXCR1 = target: T19, CXCR1 (Homo sapiens, UniProt P25024); experiment: CXCR1 Neutrophil Calcium Mobilization; format: cell-based; settings: read-out: Potency (IC50), CXCR1
T19 construct: Human monocytes and neutrophils were isolated from healthy volunteers; host or cells: primary human neutrophils
Method: as §1

[6] = system: partially nephrectomized mice; experiment: 5/6 nephrectomy model; format: in vivo; set-up: reduction in UACR / UACR reduction vs vehicle: concentration or dose not given beside the values; settings: for UACR reduction vs vehicle: 5/6 nephrectomy model (Example 7, FIG. 8), week one; for reduction in UACR: mono-therapy
Method: 5/6 nephrectomy mice on the 129X1/SvJ background were obtained from Jackson Laboratories, and were received at ChemoCentryx after the surgery was performed at JAX. Under isoflurane anesthesia, two-thirds of the left kidney mass was removed at 5-6 weeks of age. Then, after 7 to 10 days, a right unilateral nephrectomy was performed. The mice were fed a standard chow and had free access to water. Three weeks after the 5/6 nephrectomy, the mice were grouped to ensure a similar starting UAER in each treatment group. […] The RAAS blocker candesartan (AK Scientific, Union City, Calif.) and its vehicle were dosed orally once daily at 5 mg/kg formulated in water. Sparsentan, the dual-acting receptor antagonist for endothelin (A type) and angiotensin II receptors (Type 1) (Murugesan et al, 2005) was synthesized at ChemoCentryx and was dosed orally twice daily at 90 mg/kg formulated in 1% HPMC. The mice were housed individually in metabolic cages for quantitative collection of urinary albumin and creatinine.
as §1
To corroborated the above findings, another FSGS model mechanistically distinct from the Adriamycin approach was tested, the 5/6 nephrectomy model. Beginning three weeks after the completion of surgery, the mice were treated with Compound 1 or RAAS blocker either alone or in combination. As above, renal function was quantified by measuring the UACR, UAER serum creatinine and BUN levels.

[7] = 5/6 nephrectomy model (Table 3), Week 1, Compound 1 90 mg/kg, RAAS Blocker 5 mg/kg
[8] = 5/6 nephrectomy model (Table 3), Week 2, Compound 1 90 mg/kg, RAAS Blocker 5 mg/kg
[9] = 5/6 nephrectomy model (Table 3), Week 3, Compound 1 90 mg/kg, RAAS Blocker 5 mg/kg
[10] = 5/6 nephrectomy model, comparison with ET1/AT2 dual inhibitor (Table 4), Week 1
[11] = 5/6 nephrectomy model, comparison with ET1/AT2 dual inhibitor (Table 4), Week 2
[12] = 5/6 nephrectomy model, comparison with ET1/AT2 dual inhibitor (Table 4), Week 4

T1 sequence (P51685 whole entry): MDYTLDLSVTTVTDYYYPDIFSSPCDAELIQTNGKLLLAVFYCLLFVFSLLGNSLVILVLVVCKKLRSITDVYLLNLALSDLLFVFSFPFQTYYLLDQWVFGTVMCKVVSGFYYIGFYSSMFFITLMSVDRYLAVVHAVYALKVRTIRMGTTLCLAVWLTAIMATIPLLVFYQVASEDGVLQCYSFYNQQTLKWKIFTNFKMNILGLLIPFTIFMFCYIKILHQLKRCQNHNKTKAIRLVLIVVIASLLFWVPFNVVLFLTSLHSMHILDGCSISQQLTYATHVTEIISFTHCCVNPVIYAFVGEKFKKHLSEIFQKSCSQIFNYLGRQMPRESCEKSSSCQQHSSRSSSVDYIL

Cc1cnc(C(=O)c2ccnc3[nH]ccc23)c(NS(=O)(=O)c2ccc(Cl)c(C(F)(F)F)c2)c1 [Compound 1]
IC50 (CCR8): > 10 µM
IC50 (C3aR): > 10 µM
IC50 (CCR7): > 10 µM
IC50 (CCR3): > 10 µM
IC50 (CXCR5): > 10 µM
IC50 (CCR4): > 10 µM
IC50 (CXCR7): > 10 µM
IC50 (CCR10): > 10 µM
IC50 (CCR9): > 10 µM
IC50 (CXCR6): > 10 µM
concentration at 24 h [1]: ~3.5 µM
IC50 (CCR2 [2]): 0.27 µM
UAER ([3]; Week 1): 26.15, p = 0.06 mg/day
UAER ([3]; Week 2): 24.19, p = 0.032 mg/day
UAER, in words ([3]; Adriamycin treated mice): significant reduction
IC50 (CXCR2): > 10 µM
IC50 (CXCR4): > 10 µM
IC50 (CCR2 [4]): 0.0005 µM
IC50 (CCR6): > 8 µM
IC50 (CXCR3): > 10 µM
kidney histology at 400× magnification (glomeruli), in words [5]: decreased glomerular sclerosis, mesangial expansion, hyaline deposits and tubular collapse
kidney histology at 100× magnification, in words ([5]; with respect to vehicle control): reductions in tubular dilation and hyaline deposits
IC50 (CCR1): > 10 µM
IC50 (C5aR): > 10 µM
IC50 (CXCR1): > 10 µM
UACR reduction vs vehicle [6]: 64.8%
UAER [6, 7]: 15.68, p = 0.30 mg/day
UAER [6, 8]: 6.72, p = 0.07 mg/day
UAER [6, 9]: 11.75, p = 0.001 mg/day
UAER [6, 10]: 7.1, p = 0.07 mg/day
UAER [6, 11]: 11.0, p = 0.1 mg/day
UAER [6, 12]: 2.8, p = 0.02 mg/day
UACR, in words ([6]; 5/6 nephrectomy model, four-week study): markedly reduced
reduction in UACR ([6]; 5/6 nephrectomy model, week four): 57%
reduction in UACR ([6]; 5/6 nephrectomy model, week three): 72%
creatinine and BUN, in words ([6]; 5/6 nephrectomy model, with respect to vehicle control, four-week time point): marked reductions

CCCCC1=NC2(CCCC2)C(=O)N1Cc1ccc(-c2ccccc2S(=O)(=O)Nc2noc(C)c2C)c(COCC)c1 [ET1/AT2 Dual Blocker, Sparsentan, reference compound]
UACR reduction vs vehicle [6]: 93.5%
UAER [6, 10]: 2.6, p = 0.036 mg/day
UAER [6, 11]: 1.5, p = 0.01 mg/day
UAER [6, 12]: 1.15, p = 0.001 mg/day

CCOc1nc2cccc(C(=O)O)c2n1Cc1ccc(-c2ccccc2-c2nnn[nH]2)cc1 [RAAS Blocker, Candesartan, reference compound]
UAER ([3]; Week 1): 39.46, p = 0.16 mg/day
UAER ([3]; Week 2): 66.87 mg/day
UACR reduction vs vehicle [6]: 73.4%
UAER [6, 7]: 8.27, p = 0.03 mg/day
UAER [6, 8]: 3.62, p = 0.03 mg/day
UAER [6, 9]: 3.32, p < 0.0001 mg/day
UAER [6, 10]: 9.4, p = 0.27 mg/day
UAER [6, 11]: 7.7, p = 0.06 mg/day
UAER [6, 12]: 1.7, p = 0.02 mg/day
